Measured values taken from patent US20260317324A1, “BIFUNCTIONAL COMPOUNDS FOR DEGRADING BRAF VIA UBIQUITIN PROTEOSOME PATHWAY” (Nurix Therapeutics, Inc., priority 2023, published 2026).

Tests used:
Format in all cases: cell-based
BRAF V600E = biological target: T1, BRAF V600E (Homo sapiens, UniProt P15056, V600E); test: BRAF HiBiT degradation assay, C-terminal HiBiT-tagged BRAF V600E A375 cells (clone 1F10), Nano-Glo HiBiT Lytic assay; details: for Dmax: A-375
T1 construct: endogenous C-terminal HiBiT fusion tag on BRAF V600E allele; endogenous in cells; host or cells: A375 clone 1F10 (CRISPR-Cas9 knock-in of the HiBiT tag; parental A375 from ATCC)
Summary of the method: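 Degradation is measured as loss of HiBiT signal from BRAF V600E tagged at its native locus in A375 cells. Doses span 1 μM to 0.01 nM in half-log steps, in duplicate. Percent remaining is calculated against DMSO controls after subtracting untagged A375 background, and curve fitting yields DC50 and observed Dmax.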

BRAF G466V = biological target: T2, BRAF G466V (Homo sapiens, UniProt P15056, G466V); test: BRAF HiBiT degradation assay, C-terminal HiBiT-tagged BRAF G466V overexpressed in HCT-116 BRAF−/− cells (clone 8), Nano-Glo HiBiT Lytic assay
T2 construct: Horizon Discovery (HCT-116 BRAF−/− cells); host or cells: HCT-116 BRAF−/− cells, clone 8, lentiviral transduction
Summary of the method: (§1)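 First, the stable HiBiT-tagged cells were plated and incubated for 24 h. Next, compound was added in duplicate as an 11-point series with a 1 μM top concentration. Lytic detection followed, with DMSO-treated parental cells used for background. Finally, DC50 and Obs. Dmax relative to DMSO were derived from the % protein remaining curves.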

BRAF G469A = biological target: T3, BRAF G469A (Homo sapiens, UniProt P15056, G469A); test: BRAF HiBiT degradation assay, C-terminal HiBiT-tagged BRAF G469A overexpressed in HCT-116 BRAF−/− cells (clone 34), Nano-Glo HiBiT Lytic assay
T3 construct: Horizon Discovery (HCT-116 BRAF−/− cells); host or cells: HCT-116 BRAF−/− cells, clone 34, lentiviral transduction
Summary of the method: as §1

BRAF D594G = biological target: T4, BRAF D594G (Homo sapiens, UniProt P15056, D594G); test: BRAF HiBiT degradation assay, C-terminal HiBiT-tagged BRAF D594G overexpressed in HCT-116 BRAF−/− cells (clone 63), Nano-Glo HiBiT Lytic assay
T4 construct: Horizon Discovery (HCT-116 BRAF−/− cells); host or cells: HCT-116 BRAF−/− cells, clone 63, lentiviral transduction
Summary of the method: as §1

[1] = A375 (BRAF V600E), DC50 at 50%: fitted conc. at Y=50
[2] = A375 (BRAF V600E), percentage protein degraded at maximal compound effect relative to DMSO
[3] = BRAF G466V, DC50 at 50%: fitted conc. at Y=50
[4] = HCT-116, BRAF G466V, percentage protein degraded at maximal compound effect relative to DMSO
[5] = Class 2, BRAF G469A, DC50 at 50%: fitted conc. at Y=50
[6] = HCT-116, Class 2, BRAF G469A, percentage protein degraded at maximal compound effect relative to DMSO
[7] = BRAF D594G, DC50 at 50%: fitted conc. at Y=50
[8] = HCT-116, BRAF D594G, percentage protein degraded at maximal compound effect relative to DMSO
[9] = A375 (BRAF V600E, Class 1), DC50 at 50% degradation
[10] = A375 (BRAF V600E, Class 1), observed Dmax, % protein degraded relative to DMSO control
[11] = BRAF G466V (Class 3), HCT-116 BRAF−/− cells, DC50 at 50% degradation
[12] = BRAF G466V (Class 3), HCT-116 BRAF−/− cells, observed Dmax relative to DMSO control
[13] = BRAF G469A (Class 2), HCT-116 BRAF−/− cells, DC50 at 50% degradation
[14] = BRAF G469A (Class 2), HCT-116 BRAF−/− cells, observed Dmax relative to DMSO control
[15] = BRAF D594G (Class 3), HCT-116 BRAF−/− cells, DC50 at 50% degradation
[16] = BRAF D594G (Class 3), HCT-116 BRAF−/− cells, observed Dmax relative to DMSO control

T3 sequence (P15056 whole entry G469A): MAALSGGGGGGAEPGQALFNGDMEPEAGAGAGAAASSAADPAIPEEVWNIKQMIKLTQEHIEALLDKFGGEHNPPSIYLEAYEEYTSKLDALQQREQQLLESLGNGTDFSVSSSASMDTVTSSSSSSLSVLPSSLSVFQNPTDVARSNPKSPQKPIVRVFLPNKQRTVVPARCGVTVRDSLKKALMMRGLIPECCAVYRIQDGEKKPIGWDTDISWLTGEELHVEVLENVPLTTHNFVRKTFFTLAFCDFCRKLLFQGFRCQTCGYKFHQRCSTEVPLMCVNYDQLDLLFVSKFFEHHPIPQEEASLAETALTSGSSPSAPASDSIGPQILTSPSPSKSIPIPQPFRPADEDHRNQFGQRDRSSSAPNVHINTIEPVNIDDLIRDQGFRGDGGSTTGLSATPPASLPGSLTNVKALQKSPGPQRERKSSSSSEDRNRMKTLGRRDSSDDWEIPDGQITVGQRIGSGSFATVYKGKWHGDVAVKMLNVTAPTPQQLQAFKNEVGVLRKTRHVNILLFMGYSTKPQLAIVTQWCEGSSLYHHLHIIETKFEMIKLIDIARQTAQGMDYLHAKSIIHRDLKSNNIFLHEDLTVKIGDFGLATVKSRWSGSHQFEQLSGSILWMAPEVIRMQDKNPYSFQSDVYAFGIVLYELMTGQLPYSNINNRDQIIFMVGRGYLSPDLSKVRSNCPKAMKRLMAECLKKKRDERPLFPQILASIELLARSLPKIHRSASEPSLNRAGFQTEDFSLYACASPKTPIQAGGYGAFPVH
T2 sequence (P15056 whole entry G466V): as the sequence (P15056 whole entry G469A) above, with G466V, A469G counted along it
T1 sequence (P15056 whole entry V600E, the tested form may be a part): as the sequence (P15056 whole entry G469A) above, with A469G, V600E counted along it
T4 sequence (P15056 whole entry D594G): as the sequence (P15056 whole entry G469A) above, with A469G, D594G counted along it

Compound	DC50 (BRAF V600E; [1]) [nM]	Dmax (BRAF V600E; [2]) [%]	DC50 (BRAF G466V; [3]) [nM]	Dmax (BRAF G466V; [4]) [%]	DC50 (BRAF G469A; [5]) [nM]	Dmax (BRAF G469A; [6]) [%]	DC50 (BRAF D594G; [7]) [nM]	Dmax (BRAF D594G; [8]) [%]	DC50 (BRAF V600E; [9]) [nM]	Dmax (BRAF V600E; [10]) [%]	DC50 (BRAF G466V; [11]) [nM]	Dmax (BRAF G466V; [12]) [%]	DC50 (BRAF G469A; [13]) [nM]	Dmax (BRAF G469A; [14]) [%]	DC50 (BRAF D594G; [15]) [nM]	Dmax (BRAF D594G; [16]) [%]
CCCS(=O)(=O)Nc1cccc(-c2nc(C(C)(C)C)sc2-c2ccnc(Nc3ccc(C4CCN(CC5CCN(c6ccc(C7CCC(=O)NC7=O)cn6)CC5)CC4)cc3)n2)c1F (racemic) [Compound 35, Rac-N-[3-(2-tert-butyl-5-{2-[(4-{1-[(1-{5-[(3R)-2,6-dioxopiperidin-3-yl]pyridin-2-yl}piperidin-4-yl)methyl]piperidin-4-yl}phenyl)amino]pyrimidin-4-yl}-1,3-thiazol-4-yl)-2-fluorophenyl]propane-1-sulfonamide]	< 10	> 70	> 500	30 to 70	10 to 50	< 30	> 500	30 to 70								
O=C1CC[C@H](c2ccc(N3CCC(CN4CCN(c5ccc(-n6cc(-c7cc(Cl)cc(NS(=O)(=O)N8CC[C@@H](F)C8)c7F)c(-c7ccncc7)n6)cc5)CC4)CC3)cc2)C(=O)N1 [Compound 291, (3R)—N-{5-chloro-3-[1-(4-{4-[(1-{4-[(3R)-2,6-dioxopiperidin-3-yl]phenyl}piperidin-4-yl)methyl]piperazin-1-yl}phenyl)-3-(pyridin-4-yl)-1H-pyrazol-4-yl]-2-fluorophenyl}-3-fluoropyrrolidine-1-sulfonamide]									< 10	> 70	< 10	> 70	< 10	> 70	< 10	> 70
CCCS(=O)(=O)Nc1cccc(-c2nc(C3CCN(C(=O)C4CCN(CC5CCN(c6ccc(C7CCC(=O)NC7=O)cn6)CC5)CC4)CC3)sc2-c2ccncc2)c1F (racemic) [Compound 211, Rac-N-{3-[2-(1-{1-[(1-{5-[(3R)-2,6-dioxopiperidin-3-yl]pyridin-2-yl}piperidin-4-yl)methyl]piperidine-4-carbonyl}piperidin-4-yl)-5-(pyridin-4-yl)-1,3-thiazol-4-yl]-2-fluorophenyl}propane-1-sulfonamide]	50 to 500	> 70	> 500	30 to 70	> 500	< 30	> 500	30 to 70								
CCCS(=O)(=O)Nc1cccc(-c2nc(-c3ccc(N4CCN(CC5CCN(c6ccc(C7CCC(=O)NC7=O)cn6)CC5)CC4)cc3)sc2-c2ccnc(N)n2)c1F (racemic) [Compound 187, Rac-N-{3-[5-(2-aminopyrimidin-4-yl)-2-(4-{4-[(1-{5-[(3R)-2,6-dioxopiperidin-3-yl]pyridin-2-yl}piperidin-4-yl)methyl]piperazin-1-yl}phenyl)-1,3-thiazol-4-yl]-2-fluorophenyl}propane-1-sulfonamide]	< 10	> 70	10 to 50	30 to 70	10 to 50	30 to 70	< 10	30 to 70								
CCCS(=O)(=O)Nc1cccc(-c2nc(C3CCN(C(=O)CC4CCN(C5CCN(c6ccc7c(c6)C(=O)N(C6CCC(=O)NC6=O)C7=O)CC5)CC4)CC3)sc2-c2ccnc(N)n2)c1F (racemic) [Compound 250, Rac-N-{3-[5-(2-aminopyrimidin-4-yl)-2-{1-[2-(1′-{2-[(3R)-2,6-dioxopiperidin-3-yl]-1,3-dioxo-2,3-dihydro-1H-isoindol-5-yl}-[1,4′-bipiperidin]-4-yl)acetyl]piperidin-4-yl}-1,3-thiazol-4-yl]-2-fluorophenyl}propane-1-sulfonamide]									50 to 500	> 70	> 500	30 to 70	> 500	< 30	> 500	30 to 70
CCCS(=O)(=O)Nc1cccc(-c2nc(C(C)(C)C)sc2-c2ccnc(Nc3cccc(OC4CCN(C(=O)[C@@H]5CCN(c6ccc(C7CCC(=O)NC7=O)cn6)C5)CC4)c3)n2)c1F (mixture of isomers) [Compound 94, N-{3-[2-tert-butyl-5-(2-{[3-({1-[(3R)-1-{5-[(3RS)-2,6-dioxopiperidin-3-yl]pyridin-2-yl}pyrrolidine-3-carbonyl]piperidin-4-yl}oxy)phenyl]amino}pyrimidin-4-yl)-1,3-thiazol-4-yl]-2-fluorophenyl}propane-1-sulfonamide]	< 10	> 70	< 10	30 to 70	> 500	30 to 70	< 10	30 to 70								
C[C@@H]1CN(c2ccc(-n3cc(-c4cc(Cl)cc(NS(=O)(=O)N5CC[C@@H](F)C5)c4F)c(-c4ccncc4)n3)nc2)CCN1CC1CCN(c2ccc(C3CCC(=O)NC3=O)cn2)CC1 (mixture of isomers) [Compound 321, (3R)—N-[5-chloro-3-(1-{5-[(3R)-4-[(1-{5-[(3RS)-2,6-dioxopiperidin-3-yl]pyridin-2-yl}piperidin-4-yl)methyl]-3-methylpiperazin-1-yl]pyridin-2-yl}-3-(pyridin-4-yl)-1H-pyrazol-4-yl)-2-fluorophenyl]-3-fluoropyrrolidine-1-sulfonamide]									< 10	> 70	< 10	> 70	< 10	> 70	< 10	> 70

Continued, values first:

DC50 (BRAF V600E; [1]) [nM]	Dmax (BRAF V600E; [2]) [%]	DC50 (BRAF G466V; [3]) [nM]	Dmax (BRAF G466V; [4]) [%]	DC50 (BRAF G469A; [5]) [nM]	Dmax (BRAF G469A; [6]) [%]	DC50 (BRAF D594G; [7]) [nM]	Dmax (BRAF D594G; [8]) [%]	DC50 (BRAF V600E; [9]) [nM]	Dmax (BRAF V600E; [10]) [%]	DC50 (BRAF G466V; [11]) [nM]	Dmax (BRAF G466V; [12]) [%]	DC50 (BRAF G469A; [13]) [nM]	Dmax (BRAF G469A; [14]) [%]	DC50 (BRAF D594G; [15]) [nM]	Dmax (BRAF D594G; [16]) [%]	Compound
								10 to 50	> 70	< 10	> 70	50 to 500	30 to 70	< 10	30 to 70	O=C1CCC(c2ccc(N3CCC(CN4CCN(c5ccc(-n6cc(-c7cc(Cl)cc(NS(=O)(=O)N8CCCC8)c7F)c(-c7ccncc7)n6)cc5)CC4)CC3)c(F)c2F)C(=O)N1 (racemic) [Compound 385, Rac-N-{5-chloro-3-[1-(4-{4-[(1-{4-[(3R)-2,6-dioxopiperidin-3-yl]-2,3-difluorophenyl}piperidin-4-yl)methyl]piperazin-1-yl}phenyl)-3-(pyridin-4-yl)-1H-pyrazol-4-yl]-2-fluorophenyl}pyrrolidine-1-sulfonamide]
								< 10	> 70	< 10	> 70	< 10	> 70	< 10	> 70	O=C1CCC(c2ccc(N3CCC(CN4CCN(c5ccc(-n6cc(-c7cc(C(F)F)cc(NS(=O)(=O)N8CCCC8)c7F)c(-c7ccncc7)n6)cc5)CC4)CC3)nc2)C(=O)N1 (racemic) [Compound 350, Rac-N-[5-(difluoromethyl)-3-[1-(4-{4-[(1-{5-[(3R)-2,6-dioxopiperidin-3-yl]pyridin-2-yl}piperidin-4-yl)methyl]piperazin-1-yl}phenyl)-3-(pyridin-4-yl)-1H-pyrazol-4-yl]-2-fluorophenyl]pyrrolidine-1-sulfonamide]
								10 to 50	> 70	< 10	> 70	10 to 50	30 to 70	< 10	30 to 70	O=C1CCC(c2c(F)cc(N3CCC(CN4CCN(c5ccc(-n6cc(-c7cc(Cl)cc(NS(=O)(=O)N8CCCC8)c7F)c(-c7ccncc7)n6)cc5)CC4)CC3)cc2F)C(=O)N1 (racemic) [Compound 387, Rac-N-{5-chloro-3-[1-(4-{4-[(1-{4-[(3R)-2,6-dioxopiperidin-3-yl]-3,5-difluorophenyl}piperidin-4-yl)methyl]piperazin-1-yl}phenyl)-3-(pyridin-4-yl)-1H-pyrazol-4-yl]-2-fluorophenyl}pyrrolidine-1-sulfonamide]
